Earlier results in US20180177700A1, “HAIR REMOVAL COMPOSITIONS AND METHODS” (priority 2016, published 2018).
Where a name gives a salt, the structure may show the parent alone.

Legend:
body hair = settings: all different types of body hair (scalp, facial, axillary, pubic, leg)
[1] = topical, 24 weeks, over 594 patients, versus placebo

Row | Structure (SMILES) | hair loss induced (body hair) [%] | time after drug application at which hair growth returned to baseline (transient inhibition) (unwanted facial hair; after the drug application) | patients with "Clear" physician reported change in unwanted facial hair (unwanted facial hair; [1]) [%] | patients with "Improved" physician reported change in unwanted facial hair (unwanted facial hair; [1]) [%] | patients with "Marked" physician reported change in unwanted facial hair (unwanted facial hair; [1]) [%]
1 | CS(=O)(=O)OCCCCOS(C)(=O)=O [busulfan] | ~100 |  |  |  | 
2 | NCCCC(N)(C(=O)O)C(F)F (centres unmarked) [eflornithine hydrochloride] |  | eight | 5 | 26 | 27
